Laboratory results: the supplement of paper PMC11061612

How the values were obtained:
5637 (Bladder Carcinoma) [1] = test: Bliss excess, mean over the matrix (fraction); higher = more synergy
Procedure, shortened: (§1)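 Bliss excess equals the observed combination effect minus the expected value EA + EB − EA·EB, where EA and EB are the effects of each agent alone. Combination Emax is the second-highest inhibition within the matrix. Inhibition was scaled from CellTiter-Glo 2.0 luminescence, with 0 set by vehicle wells and 1 by blank wells, after 72 hours of two-drug dosing of cells plated in 1536-well plates.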

5637 (Bladder Carcinoma) [2] = test: combination Emax (second highest fraction inhibited in the dose matrix, 72 h); higher = more inhibition; extreme values may be limits of the assay
Procedure, shortened: as §1

A204 (Rhabdomyosarcoma) = test: as above
Procedure, shortened: as §1

AU565 (Breast Carcinoma) = test: as above
Procedure, shortened: as §1

[3] = tested on: CESS (Acute Myeloid Leukemia); test: as above
Procedure, shortened: as §1

[4] = tested on: DU-4475 (Breast Carcinoma); test: as above
Procedure, shortened: as §1

[5] = tested on: EPLC-272H (Other Solid Carcinomas); test: as above
Procedure, shortened: as §1

EW-16 (Ewing's Sarcoma) = test: as above
Procedure, shortened: as §1

[6] = tested on: GA-10 (Burkitt's Lymphoma); test: as above
Procedure, shortened: as §1

[7] = tested on: GCT (Other Solid Carcinomas); test: as above
Procedure, shortened: as §1

[8] = tested on: HCC1428 (Breast Carcinoma); test: as above
Procedure, shortened: as §1

[9] = tested on: HT55 (Colorectal Carcinoma); test: as above
Procedure, shortened: as §1

[10] = tested on: JIMT-1 (Breast Carcinoma); test: as above
Procedure, shortened: as §1

[11] = tested on: LS-411N (Colorectal Carcinoma); test: as above
Procedure, shortened: as §1

[12] = tested on: NCI-H2228 (Lung Adenocarcinoma); test: as above
Procedure, shortened: as §1

[13] = tested on: NCI-H716 (Colorectal Carcinoma); test: as above
Procedure, shortened: as §1

[14] = tested on: OACp4C (Esophageal Adenocarcinoma); test: as above
Procedure, shortened: as §1

RH-41 (Rhabdomyosarcoma) = test: as above
Procedure, shortened: as §1

[15] = tested on: TE-10 (Esophageal Squamous Cell Carcinoma); test: as above
Procedure, shortened: as §1

[16] = tested on: huH-1 (Hepatocellular Carcinoma); test: as above
Procedure, shortened: as §1

Compound	Bliss excess (5637 (Bladder Carcinoma) [1])	combination Emax (5637 (Bladder Carcinoma) [2])	combination Emax (A204 (Rhabdomyosarcoma))	combination Emax (AU565 (Breast Carcinoma))	combination Emax [3]	combination Emax [4]	combination Emax [5]	combination Emax (EW-16 (Ewing's Sarcoma))	combination Emax [6]	combination Emax [7]	combination Emax [8]	combination Emax [9]	combination Emax [10]	combination Emax [11]	combination Emax [12]	combination Emax [13]	combination Emax [14]	combination Emax (RH-41 (Rhabdomyosarcoma))	combination Emax [15]	combination Emax [16]
Cc1cc2ncnn2cc1Nc1ncc2c(n1)n(C1CCOCC1)c(=O)n2C [AZD7648] + C=CCn1c(=O)c2cnc(Nc3ccc(N4CCN(C)CC4)cc3)nc2n1-c1cccc(C(C)(C)O)n1 [AZD1775] (first compound max 10 µM, partner max 1 µM)	0.0026	0.792	0.43	0.547	0.919	0.88	0.832	0.448	0.988	0.452	0.238	0.341	0.721	0.574	0.561	0.487	0.814	0.927	0.86	0.746
Cc1cc2ncnn2cc1Nc1ncc2c(n1)n(C1CCOCC1)c(=O)n2C [AZD7648] + CCN(CCO)CCCOc1ccc2c(Nc3cc(CC(=O)Nc4cccc(F)c4)[nH]n3)ncnc2c1 [AZD2811] (first compound max 10 µM, 7x7, partner max 1 µM)	0.0149	0.648	0.467	0.366	0.243	0.23	0.496	0.445	0.852	0.312	0.326	0.229	0.348	0.208	0.434	0.336	0.63	0.329	0.335	0.561
CN(CCO)CC[C@H](CSc1ccccc1)Nc1ccc(S(=O)(=O)NC(=O)c2ccc(N3CCC([C@@H](O)c4ccccc4-c4ccc(Cl)cc4)CC3)cc2)cc1S(=O)(=O)C(F)(F)F [AZD4320] + Cc1cc2ncnn2cc1Nc1ncc2c(n1)n(C1CCOCC1)c(=O)n2C [AZD7648] (first compound max 1 µM, 7x7, partner max 10 µM)	-0.0359	0.172	0.273	0.327	0.566	0.916	0.525	0.389	0.643	0.25	0.584	0.196	0.225	0.183	0.296	0.209	0.906	0.91	0.202	0.127
Cc1cc2ncnn2cc1Nc1ncc2c(n1)n(C1CCOCC1)c(=O)n2C [AZD7648] + CN(C)CCCOc1ccc(-c2ccc3ncc4c(c3c2)n(C2CCOCC2)c(=O)n4C)cn1 [AZD0156] (first compound max 10 µM, 7x7, partner max 1 µM)	-0.0004	0.153	0.384	0.593	0.367	0.0619	0.458	0.192	0.446	0.343	0.238	0.169	0.348	0.115	0.407	0.251	0.329	0.282	0.292	0.3
CN(CCO)CC[C@H](CSc1ccccc1)Nc1ccc(S(=O)(=O)NC(=O)c2ccc(N3CCC([C@@H](O)c4ccccc4-c4ccc(Cl)cc4)CC3)cc2)cc1S(=O)(=O)C(F)(F)F [AZD4320] + CCN(CCO)CCCOc1ccc2c(Nc3cc(CC(=O)Nc4cccc(F)c4)[nH]n3)ncnc2c1 [AZD2811] (first compound max 1 µM, 7x7, partner max 1 µM)	-0.0117	0.898	0.261	0.34	0.937	0.971	0.635	0.973	0.661	0.239	0.754	0.376	0.319	0.567	0.271	0.298	0.863	0.828	0.463	0.297
Cc1cc2ncnn2cc1Nc1ncc2c(n1)n(C1CCOCC1)c(=O)n2C [AZD7648] + O=C(c1cc(Cc2n[nH]c(=O)c3ccccc23)ccc1F)N1CCN(C(=O)C2CC2)CC1 [Olaparib] (first compound max 10 µM, 7x7, partner max 10 µM)	-0.0198	0.25	0.246	0.213	0.37	0.565	0.53	0.47	0.569	0.243	0.147	0.129	0.252	0.0674	0.353	0.258	0.363	0.345	0.233	0.198
COc1cc2c(cc1OCCCCCOc1cc3c(cc1OC)C(=O)N1C=C(C)C[C@H]1C=N3)N=C[C@@H]1CC(C)=CN1C2=O [SG3199] + O=C(c1cc(Cc2n[nH]c(=O)c3ccccc23)ccc1F)N1CCN(C(=O)C2CC2)CC1 [Olaparib] (first compound max 0.001 µM, 7x7, partner max 10 µM)	-0.0278	0.187	0.178	0.138	0.182	0.838	0.123	0.445	0.324	0.204	0.0458	0.149	0.139	0.0262	0.115	0.233	0.136	0.245	0.107	0.142
CN(CCO)CC[C@H](CSc1ccccc1)Nc1ccc(S(=O)(=O)NC(=O)c2ccc(N3CCC([C@@H](O)c4ccccc4-c4ccc(Cl)cc4)CC3)cc2)cc1S(=O)(=O)C(F)(F)F [AZD4320] + C1CN(CCC1(C(=O)N[C@@H](CCO)C2=CC=C(C=C2)Cl)N)C3=NC=NC4=C3C=CN4 [Capivasertib] (first compound max 1 µM, 7x7, partner max 3 µM)	-0.0471	0.328	0.266	0.413	0.69	0.883	0.642	0.461	0.586	0.449	0.446	0.292	0.2	0.543	0.329	0.393	0.954	1	0.231	0.197
